Experimental data published in patent US20250312416A1, “METHOD AND PHARMACEUTICAL COMPOSITION FOR CARTILAGE REGENERATION” (FAR EASTERN MEMORIAL HOSPITAL, priority 2024, published 2025).
Entries after “also recorded” stand apart in the source; their conditions may differ.

What was measured:
clinical-grade ADSCs [1] = assay: Real-time PCR of chondrogenic genes in ADSCs; format: cell-based, human; details: for expression of chondrogenic genes (SOX9, COL2A1, COMP, ACAN, ITGB1, CXCL14, CXCR4): alanine-substituted variants, 10 ng one-day treatment, day 7, relative to untreated control ADSCs
Description: Real-time PCR analysis was conducted on day 7 for CXCL12/CXCL14 peptides treated ADSCs, evaluating the expression of COMP, SOX9, COL2A1, ACAN, ITGB1, and SOSTDC1 genes. Cells were harvested, and RNA extraction was performed using a LightCycler® (Roche Applied Science). The fold change in gene expression on the y-axis was calculated relative to the same gene expression in untreated chondrocytes. Statistical analysis was conducted using one-way ANOVA. Significance levels are denoted as follows: * p<0.05, ** p<0.01, *** p<0.001, and **** p<0.0001 for comparisons between PBS treatments and the untreated group.
Real-time PCR analysis was performed on day 7 for ADSCs treated with CXCR4 agonists, assessing the expression of COMP, SOX9, COL2A1, ACAN, ITGB1, CXCL14, and SOSTIC1 genes. Cellular harvest, RNA extraction, and gene expression quantification were conducted using a LightCycler® (Roche Applied Science). The fold change in gene expression on the y-axis was calculated relative to the same gene expression in untreated chondrocytes. Statistical analysis was executed through one-way ANOVA. Significance levels are represented as follows: * p<0.05, ** p<0.01, *** p<0.001, and **** p<0.0001, indicating the significance of comparisons between PBS treatments and the untreated group.
(§1) Alcian blue staining was used to assess the chondrogenic differentiation of ADSC pellets. […] Treatment with CXCL14-PM1, CXCL14-PM2, CXCL14-PM3, and CXCR4-PM1 was sufficient to enhance the expression of chondrogenic genes in ADSCs. On day 7, real-time PCR was performed to analyze the expression of key chondrogenic markers, including SOX9, COL2A1, COMP, ACAN, ITGB1, CXCL14, and CXCR4, in ADSCs treated with these modified peptides. ADSCs were exposed to distinct peptide modifications derived from CXCL12, CXCL14, and CXCR4 at a concentration of 10 ng for a one-day treatment, after which the medium was replaced with fresh peptide-free medium. At the end of the treatment period, RNA was extracted to evaluate the expression levels of chondrogenesis-related cytokine genes. Gene expression quantification was performed using a LightCycler system (Roche Applied Science), and fold changes were calculated relative to untreated control ADSCs. […] FIG. 16(D) provides a summary of the results for alanine substitution with positively or negatively charged amino acids in CXCL12, CXCL14, and CXCR4 peptides.
ADSCs were treated with CXCL14-P, CXCL14-P1, or CXCL14-P2, respectively, at a concentration of 10 ng for 24 hours, after which the medium was replaced with fresh peptide-free medium. On day 7, total RNA was extracted, and real-time PCR analysis was performed to assess the expression levels of key chondrogenic markers, including ACAN, COL2A1, SOX9, and COMP. Gene expression levels were quantified using a LightCycler system (Roche Applied Science), with fold changes calculated relative to untreated control ADSCs. […] Immunofluorescence staining was performed to detect Collagen Type II, SOX9, COMP, and nuclei (Hoechst 33342) in 3D ADSC spheroids (middle panel). […]
Human IPFP-MSCs and ADSCs were expanded in Dulbecco's Modified Eagle's Medium (DMEM, Gibco, cat. no 2145484) with 10% FBS under a 37° C., 5% CO2 atmosphere. MSCs collected and cell extractions were determined gene expression levels of cytokines and chondrogenic markers using a LightCycler® (Roche Applied Science). The fold change in gene expression on the y-axis was calculated based on untreated cell gene expression.

clinical-grade ADSCs [2] = assay: Alcian blue staining of chondrogenic pellets (GAG), ADSCs; format: cell-based, human; details: for GAG deposition (Alcian blue): day 7, CXCL14 variants vs CXCL14-P, CXCR4-PM1 vs control
Description: The chondrogenic differentiation of pellets containing clinical-grade ADSCs was assessed through Alcian blue staining.
The chondrogenic differentiation of pellets containing clinical-grade ADSCs was evaluated using Alcian blue staining.
as §1
To assess differentiation capacity, single-cell suspensions from cultured IPFP-MSCs and ADSCs were cultivated in chondrogenic medium. Alcian Blue staining was performed on day 7 to evaluate chondrogenic differentiation. The chondrogenic differentiation test was measured gene expressions of ACAN, COL2A1, SOX9, COMP, ITGB1, CXCL14 and SOSTDC1.

UC-MSCs [3] = assay: Real-time PCR of chondrogenic genes in UC-MSCs; format: cell-based; details: day 7 of peptide treatment
Text: (§2) FIG. 13A provides flowchart illustrating the protocol for peptide treatment and sample collection. […] TGF-beta influenced the expression of chondrogenic genes, including ITGB1 and COMP. […] Treatment with CXCL14/CXCL12 peptides increased GAG content during chondrogenesis in the presence of TGF-beta.
(§3) To further validate the role of CXCL14-P and CXCL12-P in regulating chondrogenesis, we compared their effects on another MSC source, umbilical cord-derived mesenchymal stem cells (UC-MSCs). It is important to note that the chondrogenic induction medium contained TGF-β. During chondrogenesis, we observed that the chondrogenic patterns in UC-MSCs were lower than those in ADSCs (FIG. 12). Subsequently, we assessed the chondrogenic potential of UC-MSCs following stimulation with CXCL14-P and CXCL12-P (FIG. 13A). […] Although the expression of chondrogenic genes (FIG. 13B) and GAG content (FIG. 13C) in UC-MSCs was not as pronounced as in ADSCs, the findings confirm that CXCL14-P and CXCL12-P can robustly stimulate chondrogenesis across different MSC sources.

UC-MSCs [4] = assay: Alcian blue staining of chondrogenic pellets (GAG), UC-MSCs; format: cell-based; details: in the presence of TGF-beta
Text: as §2, §3

ADSCs = assay: Cellular uptake of fluorescently labeled peptides by fluorescence microscopy; format: cell-based, human; details: 10 ng FITC-conjugated peptide, 37° C. for one day, observed days 1, 3, 7
Description: Cell-penetrating properties of CXCL14-P and CXCL12-P peptides in ADSCs were analyzed. ADSCs were incubated with 10 ng of FITC-conjugated peptides at 37° C. for one day, followed by refreshing the chondrogenic medium. Peptide internalization was evaluated through fluorescence microscopy on days 1, 3, and 7.
We further explored whether peptides derived from CXCL14 and CXCL12 have the capacity to induce chondrogenesis in MSCs from different sources. To assess their potential, ADSCs were utilized in the study to evaluate the chondrogenic capacity of CXCL14-P and CXCL12-P on day 7 (FIG. 10A). […] FIG. 11 illustrates the cell-penetrating properties of CXCL14-P and CXCL12-P peptides in ADSCs, analyzed at different time points. ADSCs were incubated with FITC-conjugated peptides for one day, after which the chondrogenic medium was refreshed. […] Collectively, these observations indicate that CXCL14-P and CXCL12-P have the ability to stimulate chondrogenesis and further amplify the effects of TGF-β during the chondrogenic process.

ADSC spheroids = assay: Immunofluorescence / confocal microscopy of chondrogenic proteins in ADSC spheroids; format: cell-based, human; details: ADSC spheroids, 7 days
Description: Both side views (observed in the x and z plane) and bottom views (observed in the […]) of the images are provided. The scale bar is set at 500 μm.
ADSCs were treated with CXCL14-P, CXCL14-P1, or CXCL14-P2, respectively, at a concentration of 10 ng for 24 hours, after which the medium was replaced with fresh peptide-free medium. On day 7, total RNA was extracted, and real-time PCR analysis was performed to assess the expression levels of key chondrogenic markers, including ACAN, COL2A1, SOX9, and COMP. Gene expression levels were quantified using a LightCycler system (Roche Applied Science), with fold changes calculated relative to untreated control ADSCs. […] Immunofluorescence staining was performed to detect Collagen Type II, SOX9, COMP, and nuclei (Hoechst 33342) in 3D ADSC spheroids (middle panel).
(FIG. 3). […] Moreover, fluorescence confocal microscopy was employed to detect protein patterns and confirm the levels of SOX9, type II collagen, and aggrecan proteins in ADSC spheroids. […] Finally, to investigate whether the CXCR4 receptor of CXCL12/CXCL14 confers chondrogenic signaling during chondrogenesis, we treated ADSCs with a CXCR4 agonist for 7 days.
Extracellular vesicles (EVs) derived from MSCs hold significant potential for repairing damaged tissues. In this study, we explored whether EVs from ADSCs could effectively enhance chondrogenesis and promote cartilage repair. Immunofluorescence staining was used to assess protein levels of Collagen Type II (green), SOX9 (red), COMP (indigo), and Hoechst 33342 (gray) in 3D ADSC spheroids treated with MSC-EVs derived from CXCL14 peptide-primed ADSCs (CXCL14-P-MSC-EVs) at various time points. […] To further explore the cartilage repair functions of EVs from CXCL14-P-treated ADSCs and the encapsulation of the transcription factor SOX9 within MSCs and purified EVs, we performed in vivo studies.

ITTKSVSRYRGDEH [CXCL14-PM3]
expression of chondrogenic genes (SOX9, COL2A1, COMP, ACAN, ITGB1, CXCL14, CXCR4) (clinical-grade ADSCs [1]): significantly enhance
GAG deposition (Alcian blue) (clinical-grade ADSCs [2]): increased GAG deposition; also recorded: did not significantly alter GAG contents

ITTKSVSRYRGQAH [CXCL14-PM2]
expression of chondrogenic genes (SOX9, COL2A1, COMP, ACAN, ITGB1, CXCL14, CXCR4) (clinical-grade ADSCs [1]): significantly enhance
GAG deposition (Alcian blue) (clinical-grade ADSCs [2]): increased GAG deposition; also recorded: enhance GAG contents

RANVKHLKILN [CXCL12-P]
expression of chondrogenic genes (COMP, SOX9, COL2A1, ACAN, ITGB1, SOSTDC1) (clinical-grade ADSCs [1]; day 7, peptides compared to CXCL12/CXCL14 proteins, listed as CXCL12 peptide): significantly upregulated; also recorded: greater ability
expression of chondrogenic genes (COMP, SOX9, COL2A1, ACAN, ITGB1) (clinical-grade ADSCs [1]; day 7 of treatment with peptide): significantly upregulated
chondrogenic genes (clinical-grade ADSCs [1]; in the absence of TGF-β): evident
expression of chondrogenic genes ITGB1 and COMP (clinical-grade ADSCs [1]; in the presence of TGF-β, day 7): significantly enhanced
GAG content (Alcian blue) (clinical-grade ADSCs [2]; in the absence of TGF-β): evident
GAG content (Alcian blue) (clinical-grade ADSCs [2]; in the presence of TGF-beta): significantly increased
GAG content (Alcian blue) (clinical-grade ADSCs [2]; peptides compared to CXCL14/CXCL12 proteins, listed as CXCL12 peptide): significantly higher; also recorded: greater ability
chondrogenic gene expression (COMP, SOX9, COL2A1, ACAN, ITGB1) (UC-MSCs [3]): significantly upregulated
GAG content (Alcian blue) (UC-MSCs [4]): increased
peptide internalization (cell penetration) (ADSCs): remain detectable up to day 7

ITTASVSAYAGQEH [CXCL14-PM1]
expression of chondrogenic genes (SOX9, COL2A1, COMP, ACAN, ITGB1, CXCL14, CXCR4) (clinical-grade ADSCs [1]): significantly enhance
GAG deposition (Alcian blue) (clinical-grade ADSCs [2]): increased GAG deposition; also recorded: enhance GAG contents

MGYGAALASMTDAYAL (MGYQAALASMTDAYAL) [CXCR4-PM1]
expression of chondrogenic genes (SOX9, COL2A1, COMP, ACAN, ITGB1, CXCL14, CXCR4) (clinical-grade ADSCs [1]): significantly enhance
GAG deposition (Alcian blue) (clinical-grade ADSCs [2]): increased GAG deposition; also recorded: significantly enhanced

CXCL12: C-X-C motif chemokine 12, also known as stromal cell-derived factor 1 (SDF-1)
expression of SOX9, type II collagen, and aggrecan (ADSC spheroids): notably induced

AANVAHLAILN [CXCL12-PM1]
expression of chondrogenic marker genes, variant vs unmodified peptide (clinical-grade ADSCs [1]; CXCL12-P vs CXCL12-PM1, day 7): no significant changes
expression of chondrogenic genes (SOX9, COL2A1, COMP, ACAN, ITGB1, CXCL14, CXCR4) (clinical-grade ADSCs [1]): significantly enhance
